# From the supplement of paper PMC9663587
# What was measured:
# [1] = compound: CO[C@@H](C)Cn1c(=O)n(C)c2cnc3ccc(-c4cncc(C(C)(C)O)c4)cc3c21
# [2] = compound: T1, CN1CC[C@H](c2c(O)cc(O)c3c(=O)cc(-c4ccccc4Cl)oc23)[C@H](O)C1 [Flavopiridol]
# [3] = compound: Cc1nc(-c2cn3c(n2)-c2ccc(-c4cnn(C(C)(C)C(N)=O)c4)cc2OCC3)n(C(C)C)n1 [Taselisib/GDC0032]
# [4] = compound: CN1CCN(CCOc2cc(OC3CCOCC3)c3c(Nc4c(Cl)ccc5c4OCO5)ncnc3c2)CC1 [Saracatinib/AZD0530]
# [5] = compound: CN(C)CC[C@H](CSc1ccccc1)Nc1ccc(S(=O)(=O)NC(=O)c2ccc(N3CCN(Cc4ccccc4-c4ccc(Cl)cc4)CC3)cc2)cc1[N+](=O)[O-] [ABT-737]
# [6] = compound: CN(C)C(=O)c1cc2cnc(Nc3ccc(N4CCNCC4)cn3)nc2n1C1CCCC1 [LEE011/Ribociclib]; test: GR value, 72 h; higher = faster growth (1 = untreated, <0 = killing);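 further: breast cancer and non-malignant breast epithelial lines, nine half-log doses, viable cells counted by Hoechst and LIVE/DEAD dye imaging versus time-zero plates and DMSO controls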
# [7] = compound: C=CC(=O)Nc1ccc(C(=O)Nc2[nH]nc3c2CN(C(=O)N[C@H](CN(C)C)c2ccccc2)C3(C)C)cc1 [YKL-5-124]; test: as above
# [8] = compound: CC(=O)c1c(C)c2cnc(Nc3ccc(N4CCNCC4)cn3)nc2n(C2CCCC2)c1=O; test: as above
# [9] = compound: CCc1cnn2c(NCc3ccc[n+]([O-])c3)cc(N3CCCC[C@H]3CCO)nc12; test: as above
# [10] = compound: T1, Flavopiridol; test: as above
# [11] = compound: CCOc1cc2ncc(C#N)c(Nc3ccc(OCc4ccccn4)c(Cl)c3)c2cc1NC(=O)/C=C/CN(C)C [Neratinib/HKI272]; test: as above
# [12] = compound: CN(C)C/C=C/C(=O)Nc1ccc(C(=O)Nc2cccc(Nc3ncc(Cl)c(-c4c[nH]c5ccccc45)n3)c2)cc1 [THZ1]; test: as above
# [13] = compound: CC(=O)c1c(C)c2cnc(Nc3ccc(N4CCN(CCOCCOCCOCCNC(=O)COc5cccc6c5C(=O)N(C5CCC(=O)NC5=O)C6=O)CC4)cn3)nc2n(C2CCCC2)c1=O [BSJ-03-123]; test: as above
# [14] = compound: CCN1CCN(Cc2ccc(Nc3ncc(F)c(-c4cc(F)c5nc(C)n(C(C)C)c5c4)n3)nc2)CC1; test: as above
# [15] = compound: CN(C)C/C=C/C(=O)Nc1ccc(C(=O)N2CCC[C@@H](Nc3ncc(Cl)c(-c4c[nH]c5ccccc45)n3)C2)cc1 [THZ531]; test: as above
# 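Wherever GR50, 72 h is given: breast cancer and non-malignant breast epithelial cell lines, Deep Dye Drop or Dye Drop imaging, nine half-log doses, GR normalized to time-zero plates and DMSO-only controls.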
cell line,measurement,setting,value
SKBR3,"GR50, 72 h",[1],0.00188 µM
same,"GR50, 72 h",[2],0.132 µM
same,"GR50, 72 h",[3],0.00617 µM
same,"GR50, 72 h",[4],4.92 µM
same,"GR50, 72 h",[5],> 10 µM
same,GR value,[6]; 0.001 µM,0.897 GR
same,GR value,[6]; 0.003162 µM,0.728 GR
same,GR value,[6]; 0.01 µM,0.774 GR
same,GR value,[6]; 0.03162 µM,0.766 GR
same,GR value,[6]; 0.1 µM,0.776 GR
same,GR value,[6]; 0.3162 µM,0.471 GR
same,GR value,[6]; 1 µM,0.582 GR
same,GR value,[6]; 3.162 µM,0.429 GR
same,GR value,[6]; 10 µM,0.586 GR
same,GR value,[7]; 0.001 µM,0.455 GR
same,GR value,[7]; 0.003162 µM,0.198 GR
same,GR value,[7]; 0.01 µM,0.164 GR
same,GR value,[7]; 0.03162 µM,0.137 GR
same,GR value,[7]; 0.1 µM,0.102 GR
same,GR value,[7]; 0.3162 µM,-0.123 GR
same,GR value,[7]; 1 µM,0.0239 GR
same,GR value,[7]; 3.162 µM,-0.0117 GR
same,GR value,[7]; 10 µM,-0.572 GR
same,GR value,[8]; 0.0003162 µM,1.05 GR
same,GR value,[8]; 0.001 µM,1.03 GR
same,GR value,[8]; 0.003162 µM,0.946 GR
same,GR value,[8]; 0.01 µM,0.845 GR
same,GR value,[8]; 0.03162 µM,0.697 GR
same,GR value,[8]; 0.1 µM,0.591 GR
same,GR value,[8]; 0.3162 µM,0.434 GR
same,GR value,[8]; 1 µM,0.48 GR
same,GR value,[8]; 3.162 µM,0.334 GR
same,GR value,[9]; 0.0001 µM,0.95 GR
same,GR value,[9]; 0.0003162 µM,0.921 GR
same,GR value,[9]; 0.001 µM,1.07 GR
same,GR value,[9]; 0.003162 µM,0.933 GR
same,GR value,[9]; 0.01 µM,0.0102 GR
same,GR value,[9]; 0.03162 µM,-0.581 GR
same,GR value,[9]; 0.1 µM,-0.6 GR
same,GR value,[9]; 0.3162 µM,-0.628 GR
same,GR value,[9]; 1 µM,-0.579 GR
same,GR value,[10]; 0.0001 µM,1.04 GR
same,GR value,[10]; 0.0003162 µM,0.989 GR
same,GR value,[10]; 0.001 µM,0.844 GR
same,GR value,[10]; 0.003162 µM,0.823 GR
same,GR value,[10]; 0.01 µM,0.823 GR
same,GR value,[10]; 0.03162 µM,0.9 GR
same,GR value,[10]; 0.1 µM,0.641 GR
same,GR value,[10]; 0.3162 µM,-0.0615 GR
same,GR value,[10]; 1 µM,-0.656 GR
same,GR value,[11]; 0.0003162 µM,0.841 GR
same,GR value,[11]; 0.001 µM,0.631 GR
same,GR value,[11]; 0.003162 µM,0.264 GR
same,GR value,[11]; 0.01 µM,0.0804 GR
same,GR value,[11]; 0.03162 µM,0.0019 GR
same,GR value,[11]; 0.1 µM,-0.0509 GR
same,GR value,[11]; 0.3162 µM,-0.163 GR
same,GR value,[11]; 1 µM,-0.252 GR
same,GR value,[11]; 3.162 µM,-0.246 GR
same,GR value,[12]; 0.0001 µM,1.08 GR
same,GR value,[12]; 0.0003162 µM,1.06 GR
same,GR value,[12]; 0.001 µM,0.867 GR
same,GR value,[12]; 0.003162 µM,0.854 GR
same,GR value,[12]; 0.01 µM,0.743 GR
same,GR value,[12]; 0.03162 µM,0.0057 GR
same,GR value,[12]; 0.1 µM,-0.515 GR
same,GR value,[12]; 0.3162 µM,-0.579 GR
same,GR value,[12]; 1 µM,-0.789 GR
same,GR value,[13]; 0.001 µM,0.911 GR
same,GR value,[13]; 0.003162 µM,0.855 GR
same,GR value,[13]; 0.01 µM,0.825 GR
same,GR value,[13]; 0.03162 µM,0.79 GR
same,GR value,[13]; 0.1 µM,0.644 GR
same,GR value,[13]; 0.3162 µM,0.75 GR
same,GR value,[13]; 1 µM,0.506 GR
same,GR value,[13]; 3.162 µM,0.514 GR
same,GR value,[13]; 10 µM,-0.35 GR
same,GR value,[14]; 0.001 µM,0.874 GR
same,GR value,[14]; 0.003162 µM,0.866 GR
same,GR value,[14]; 0.01 µM,0.623 GR
same,GR value,[14]; 0.03162 µM,0.491 GR
same,GR value,[14]; 0.1 µM,0.402 GR
same,GR value,[14]; 0.3162 µM,0.337 GR
same,GR value,[14]; 1 µM,0.24 GR
same,GR value,[14]; 3.162 µM,0.27 GR
same,GR value,[14]; 10 µM,0.151 GR
same,GR value,[15]; 0.0001 µM,1.03 GR
same,GR value,[15]; 0.0003162 µM,0.963 GR
same,GR value,[15]; 0.001 µM,0.975 GR
same,GR value,[15]; 0.003162 µM,0.961 GR
same,GR value,[15]; 0.01 µM,1.07 GR
same,GR value,[15]; 0.03162 µM,0.411 GR
same,GR value,[15]; 0.1 µM,-0.26 GR
same,GR value,[15]; 0.3162 µM,-0.481 GR
same,GR value,[15]; 1 µM,-0.584 GR
